Reference: patent US12491182B2, “Polymorphs of triazole antifungal compound PC945” (Pulmocide Limited, priority 2019, dated 2025)
Marks after values point to notes of the source that are not given here.

Legend:
Type in all cases: physicochemical
[1] = Fate of Form 2 slurried in single solvents, acetone, water and acetone/water mixtures, XRPD
Procedure: In order to determine the influence of water in determining the output from such conditioning experiments, the behaviour of the Form 2 polymorph was examined in nominally dry organic media and also in monophasic, aqueous mixtures with water miscible solvents.
The same result was also obtained when the conditioning medium was either neat acetone (Table 9, Entries 1 and 6) or water alone (Table 9, Entries 5 and 10). However, in acetone-water mixtures at 50° C. over 24 hr there was clear evidence that in two instances Form 2 had been transformed into Form 1 (Table 9, Entries 7 and 9).

[2] = Fate of Form 2 slurried in THF and THF/water mixtures, XRPD
Procedure: To investigate the generality of this unforeseen transformation a similar experiment was carried out in THF and in THF/water mixtures. […] At 25° C. those mixtures comprising 10% and 20% water returned Form 1 after 4 and 24 hours respectively (Table 10, Entries 2 and 3).

[3] = Fate of Form 2 slurried in 1,4-dioxane/water mixtures, XRPD; details: 1,4-dioxane
Procedure: In the presence of 10% water the Form 1 polymorph is evident in the slurry mixture within an hour at 25° C. […] This ternary system behaved similarly at 50° C. However, at the higher temperature of 65° C. the rate of turnover is increased such that Form 1 was generated after 3 hr. Consistent with the data obtained from the experiments described above, increasing the proportion of water to 80% in this system was sufficient to halt the polymorphic interconversion at 25° C., 50° C. and even at 65° C.

[4] = Fate of Form 2 slurried in MEK/water mixtures, XRPD; details: MEK, 25 °C, 24 hours
Procedure: (Table 12). It was observed that Form 2 integrity was maintained for at least 24 hours at the lower temperature until the water content exceeded 6%, despite an increase in solubility of Compound I from 19 to 30 mg/ml (data not shown).

[5] = as above; details: MEK, 50 °C, 24 hour time point

SMILES: Cc1cc(N2CCN(c3ccc(C(=O)Nc4ccc(F)cc4)cc3)CC2)ccc1OC[C@@H]1CO[C@@](Cn2cncn2)(c2ccc(F)cc2F)C1 [Form 2, 4-(4-(4-(((3R,5R)-5-((1H-1,2,4-triazol-1-yl)methyl)-5-(2,4-difluorophenyl)tetrahydrofuran-3-yl)methoxy)-3-methylphenyl)piperazin-1-yl)-N-(4-fluorophenyl)benzamide]
- Polymorphic Form by XRPD ([1]; acetone, water 0 vol %, 25 °C, 1 and 4 hr): 2
- Polymorphic Form by XRPD ([1]; acetone, water 0 vol %, 25 °C, 24 hr): 2
- Polymorphic Form by XRPD ([1]; acetone, water 0 vol %, 50 °C, 1 and 4 hr): 2
- Polymorphic Form by XRPD ([1]; acetone, water 0 vol %, 50 °C, 24 hr): 2
- Polymorphic Form by XRPD ([1]; acetone/water, water 10 vol %, 25 °C, 1 and 4 hr): 2
- Polymorphic Form by XRPD ([1]; acetone/water, water 10 vol %, 25 °C, 24 hr): 2
- Polymorphic Form by XRPD ([1]; acetone/water, water 10 vol %, 50 °C, 1 and 4 hr): 2
- Polymorphic Form by XRPD ([1]; acetone/water, water 10 vol %, 50 °C, 24 hr): 1
- Polymorphic Form by XRPD ([1]; acetone/water, water 20 vol %, 25 °C, 1 and 4 hr): 2
- Polymorphic Form by XRPD ([1]; acetone/water, water 20 vol %, 25 °C, 24 hr): 2
- Polymorphic Form by XRPD ([1]; acetone/water, water 20 vol %, 50 °C, 1 and 4 hr): 2
- Polymorphic Form by XRPD ([1]; acetone/water, water 20 vol %, 50 °C, 24 hr): 2
- Polymorphic Form by XRPD ([1]; acetone/water, water 40 vol %, 25 °C, 1 and 4 hr): 2
- Polymorphic Form by XRPD ([1]; acetone/water, water 40 vol %, 25 °C, 24 hr): 2
- Polymorphic Form by XRPD ([1]; acetone/water, water 40 vol %, 50 °C, 1 and 4 hr): 2
- Polymorphic Form by XRPD ([1]; acetone/water, water 40 vol %, 50 °C, 24 hr): 1
- change in crystal structure on suspension in sole solvent ([1]; heptane, TBME, toluene or cyclohexane as sole solvent, 25 or 50 °C, 24 hr): no perceptible change in crystal structure
- Polymorphic Form by XRPD ([1]; water 100 vol %, 25 °C, 1 and 4 hr): 2
- Polymorphic Form by XRPD ([1]; water 100 vol %, 25 °C, 24 hr): 2
- Polymorphic Form by XRPD ([1]; water 100 vol %, 50 °C, 1 and 4 hr): 2
- Polymorphic Form by XRPD ([1]; water 100 vol %, 50 °C, 24 hr): 2
- Polymorphic Form by XRPD ([2]; THF, water 0 vol %, 25 °C, 1 hr): 2
- Polymorphic Form by XRPD ([2]; THF, water 0 vol %, 25 °C, 4 hr): 2
- Polymorphic Form by XRPD ([2]; THF, water 0 vol %, 50 °C, 1 hr): 2
- Polymorphic Form by XRPD ([2]; THF, water 0 vol %, 50 °C, 4 hr): 2
- Polymorphic Form by XRPD ([2]; THF/water, water 10 vol %, 25 °C, 1 hr): 2
- Polymorphic Form by XRPD ([2]; THF/water, water 10 vol %, 25 °C, 4 hr): 1
- Polymorphic Form by XRPD ([2]; THF/water, water 10 vol %, 25 °C, 24 hr): 1
- Polymorphic Form by XRPD ([2]; THF/water, water 10 vol %, 50 °C, 1 hr): 1
- Polymorphic Form by XRPD ([2]; THF/water, water 10 vol %, 50 °C, 4 hr): 1
- Polymorphic Form by XRPD ([2]; THF/water, water 10 vol %, 50 °C, 24 hr): 1
- Polymorphic Form by XRPD ([2]; THF/water, water 20 vol %, 25 °C, 1 hr): 2
- Polymorphic Form by XRPD ([2]; THF/water, water 20 vol %, 25 °C, 4 hr): 2
- Polymorphic Form by XRPD ([2]; THF/water, water 20 vol %, 25 °C, 24 hr): 1
- Polymorphic Form by XRPD ([2]; THF/water, water 20 vol %, 50 °C, 1 hr): 1
- Polymorphic Form by XRPD ([2]; THF/water, water 20 vol %, 50 °C, 4 hr): 1
- Polymorphic Form by XRPD ([2]; THF/water, water 20 vol %, 50 °C, 24 hr): 1
- Polymorphic Form by XRPD ([2]; THF/water, water 40 vol %, 25 °C, 1 hr): 2
- Polymorphic Form by XRPD ([2]; THF/water, water 40 vol %, 25 °C, 4 hr): 2
- Polymorphic Form by XRPD ([2]; THF/water, water 40 vol %, 25 °C, 24 hr): 2
- Polymorphic Form by XRPD ([2]; THF/water, water 40 vol %, 50 °C, 1 hr): 1
- Polymorphic Form by XRPD ([2]; THF/water, water 40 vol %, 50 °C, 4 hr): 1
- Polymorphic Form by XRPD ([2]; THF/water, water 40 vol %, 50 °C, 24 hr): 1
- Polymorphic Form by XRPD ([3]; 10% water, 25 °C, 1 hr, trace of Form 2 remaining): 1^†
- Polymorphic Form by XRPD ([3]; 10% water, 25 °C, 3 hr, trace of Form 2 remaining): 1^†
- Polymorphic Form by XRPD ([3]; 10% water, 25 °C, 6 hr, trace of Form 2 remaining): 1^†
- Polymorphic Form by XRPD ([3]; 10% water, 25 °C, 24 hr, trace of Form 2 remaining): 1^†
- Polymorphic Form by XRPD ([3]; 10% water, 50 °C, 24 hr): 1
- Polymorphic Form by XRPD ([3]; 40% water, 25 °C, 1 hr): 2
- Polymorphic Form by XRPD ([3]; 40% water, 25 °C, 3 hr): 2
- Polymorphic Form by XRPD ([3]; 40% water, 25 °C, 6 hr): 2
- Polymorphic Form by XRPD ([3]; 40% water, 25 °C, 24 hr): 1
- Polymorphic Form by XRPD ([3]; 40% water, 50 °C, 1 hr): 2
- Polymorphic Form by XRPD ([3]; 40% water, 50 °C, 3 hr): 2
- Polymorphic Form by XRPD ([3]; 40% water, 50 °C, 6 hr): 2
- Polymorphic Form by XRPD ([3]; 40% water, 50 °C, 24 hr): 1
- Polymorphic Form by XRPD ([3]; 40% water, 65 °C, 1 hr): 2
- Polymorphic Form by XRPD ([3]; 40% water, 65 °C, 3 hr): 1
- Polymorphic Form by XRPD ([3]; 40% water, 65 °C, 6 hr): 1
- Polymorphic Form by XRPD ([3]; 40% water, 65 °C, 24 hr): 1
- Polymorphic Form by XRPD ([3]; 80% water, 25 °C, 1 hr): 2
- Polymorphic Form by XRPD ([3]; 80% water, 25 °C, 3 hr): 2
- Polymorphic Form by XRPD ([3]; 80% water, 25 °C, 6 hr): 2
- Polymorphic Form by XRPD ([3]; 80% water, 25 °C, 24 hr): 2
- Polymorphic Form by XRPD ([3]; 80% water, 50 °C, 1 hr): 2
- Polymorphic Form by XRPD ([3]; 80% water, 50 °C, 3 hr): 2
- Polymorphic Form by XRPD ([3]; 80% water, 50 °C, 6 hr): 2
- Polymorphic Form by XRPD ([3]; 80% water, 50 °C, 24 hr): 2
- Polymorphic Form by XRPD ([3]; 80% water, 65 °C, 1 hr): 2
- Polymorphic Form by XRPD ([3]; 80% water, 65 °C, 3 hr): 2
- Polymorphic Form by XRPD ([3]; 80% water, 65 °C, 6 hr): 2
- Polymorphic Form by XRPD ([3]; 80% water, 65 °C, 24 hr): 2
- Polymorphic Form by XRPD ([4]; water 1 % vol): 2
- Polymorphic Form by XRPD ([4]; water 2 % vol): 2
- Polymorphic Form by XRPD ([4]; water 4 % vol): 2
- Polymorphic Form by XRPD ([4]; water 6 % vol): 2
- Polymorphic Form by XRPD ([4]; water 8 % vol): 1
- Polymorphic Form by XRPD ([5]; water 1 % vol): 2
- Polymorphic Form by XRPD ([5]; water 2 % vol): 2
- Polymorphic Form by XRPD ([5]; water 4 % vol): 1
- Polymorphic Form by XRPD ([5]; water 6 % vol): 1
- Polymorphic Form by XRPD ([5]; water 8 % vol): 1
